Measurements as given in patent US5096884A, “Glidobactin PF-1 peptide antibiotics” (Bristol-Myers Squibb Company, priority 1990, dated 1992).
≈ marks a conversion by molar mass, not a printed value. Read-outs that look alike come from different tables or passages of the source.

What was measured:
[1] = test system: Staphyloccoccus aureus 209P; assay: MIC by serial agar dilution method; assay type: cell-based; conditions: Nutrient agar; inoculum 10^4 CFU/mL
[2] = test system: Streptoccoccus faecalis A9612; assay: MIC by serial agar dilution method; assay type: cell-based; conditions: Nutrient agar; inoculum 10^4 CFU/mL
[3] = test system: Bacillus subtilis PCI 219; assay: MIC by serial agar dilution method; assay type: cell-based; conditions: Nutrient agar; inoculum 10^4 CFU/mL
Escherichia coli NIHJ = assay: MIC by serial agar dilution method; assay type: cell-based; conditions: Nutrient agar; inoculum 10^4 CFU/mL
[4] = test system: Klebsiella pneumoniae D 11; assay: MIC by serial agar dilution method; assay type: cell-based; conditions: Nutrient agar; inoculum 10^4 CFU/mL
[5] = test system: Pseudomonas aeruginosa A9930; assay: MIC by serial agar dilution method; assay type: cell-based; conditions: Nutrient agar; inoculum 10^4 CFU/mL
[6] = test system: Candida albicans IAM 4888; assay: MIC by serial agar dilution method; assay type: cell-based; conditions: Sabouraud dextrose agar; inoculum 10^5-10^7
Candida albicans A9540 = assay: MIC by serial agar dilution method; assay type: cell-based; conditions: Sabouraud dextrose agar; inoculum 10^5-10^7
[7] = test system: Cryptococcus neoformans D49; assay: MIC by serial agar dilution method; assay type: cell-based; conditions: Sabouraud dextrose agar; inoculum 10^5-10^7
[8] = test system: Aspergillus fumigatus IAM 2530; assay: MIC by serial agar dilution method; assay type: cell-based; conditions: Sabouraud dextrose agar; inoculum 10^5-10^7
[9] = test system: Fusarium moniliforme A2284; assay: MIC by serial agar dilution method; assay type: cell-based; conditions: Sabouraud dextrose agar; inoculum 10^5-10^7
[10] = test system: Trichophyton mentagrophytes D155; assay: MIC by serial agar dilution method; assay type: cell-based; conditions: Sabouraud dextrose agar; inoculum 10^5-10^7
[11] = test system: Blastomyces dermatitidis IFO 8144; assay: MIC by serial agar dilution method; assay type: cell-based; conditions: Sabouraud dextrose agar; inoculum 10^5-10^7
[12] = test system: Sporothrix schenckii IFO 8158; assay: MIC by serial agar dilution method; assay type: cell-based; conditions: Sabouraud dextrose agar; inoculum 10^5-10^7
Mucor spinosus IFO 5317 = assay: MIC by serial agar dilution method; assay type: cell-based; conditions: Sabouraud dextrose agar; inoculum 10^5-10^7
Piricularia oryzae D9 = conditions: Sabouraud dextrose agar; inoculum 10^5-10^7
[13] = test system: B16-F10 (murine melanoma) cells; assay type: cell-based; conditions: for IC50: B16-F10 cells, 72 hrs
Method: (§1) Glidobactin PF-1 and glidobactin A were tested for in vitro cytotoxicity against murine tumor cell lines and for in vivo antitumor activity in mice. Mitomycin C was used as a reference compound in both in vitro and in vivo experiments. B16-F10 (murine melanoma) cells were grown to the logarithmic phase in an enriched Eagle minimum essential medium supplemented with fetal calf serum (FCS, 10%) and kanamycin (60 μg/ml). P388 (murine lymphocytic leukemia) cells were in RPMI1640 medium supplemented with FCS (10%), penicillin (100 U/ml), and streptomycin (100 μg/ml). B16-F10 and P388 cells were harvested and implanted into wells of a 96-well (for B16-F10 cells) and a 24-well (for P388 cells) tissue culture plate with test materials at the inoculum sizes of 3×10^4 and 2×10^4 cells/mL, respectively. They were incubated at 37° C. in a humidified atmosphere of 5% CO2 and 95% air for 72 hrs. The cytotoxicity against B16-F10 cells was colorimetrically determined at 540 nm after staining viable cells with 0.006% neutral red solution. As for P388 cells, the number of viable cells was determined by a Coulter counter.

[14] = test system: P388 (murine lymphocytic leukemia) cells; assay type: cell-based; conditions: for IC50: P388 cells, 72 hrs
Method: as §1

[15] = test system: DNA synthesis in L1210 murine leukemia cells; assay: Inhibition of macromolecule synthesis, 3H-thymidine incorporation; assay type: cell-based; conditions: for IC50, DNA synthesis: L1210 cells, 3H-thymidine, 4 hrs; for inhibitory effect on DNA synthesis (in words): at 100 μg/mL, the highest concentration tested
Method: (§2) Inhibitory effects of glidobactins A and PF-1 on macromolecule biosynthesis (DNA, RNA, and protein) were determined in cultured L1210 murine leukemia cells. The cells (5×10^5 cells/mL) were incubated with test compounds at 37° C. for 15 min and further incubated for 4 hrs after the addition of labeled precursor, ^3 H-thymidine, ^14 C-uridine, or ^3 H-leucine into the cultured mixture. After washing with chilled 5% trichloroacetic acid solution, the radioactivity incorporated into the acid-insoluble fraction of the cells was determined by a liquid scintillation counter.

[16] = test system: RNA synthesis in L1210 murine leukemia cells; assay: Inhibition of macromolecule synthesis, 14C-uridine incorporation; assay type: cell-based; conditions: for IC50, RNA synthesis: L1210 cells, 14C-uridine, 4 hrs; for inhibitory effect on RNA synthesis (in words): at 100 μg/mL, the highest concentration tested
Method: as §2

[17] = test system: protein synthesis in L1210 murine leukemia cells; assay: Inhibition of macromolecule synthesis, 3H-leucine incorporation; assay type: cell-based; conditions: for effect on protein synthesis (in words) / IC50, Protein synthesis: L1210 cells; for IC50, Protein synthesis: 3H-leucine, 4 hrs
Method: as §2

B16 Melanoma (ip) = conditions: for T/C % of MST: ip, QD1→9, ≥125% significant; for antitumor activity against ip-B16 melanoma (in words): at the doses tested
Method: (§3) In vivo antitumor activity of glidobactin PF-1 was determined in experimental mouse tumor systems. Female CDF1 and male BDF1 mice were intraperitoneally inoculated with 0.4 mL of diluted ascitic fluid containing 10^6 lymphocytic leukemia P388 cells and 0.5 mL of 10% melanotic melanoma B16 brei, respectively. Test compounds were intraperitoneally administered daily for 9 days starting from 1 day after the tumor implantation.

P388 Leukemia (ip) = conditions: for T/C % of MST: ip, QD1→9, ≥125% significant; for maximum T/C value: P388 leukemia, ip daily for 9 days
Method: as §3

bacteria tested = assay: In vitro antibacterial activity; assay type: cell-based; conditions: at 100 μg/ml
Method: (§4) The minimum inhibitory concentrations (MIC's) of glidobactin PF-1 were determined for various microorganisms by a serial agar dilution method. Nutrient agar (Eiken) was used for bacteria and Sabouraud dextrose agar (Difco) for fungi. The inoculum size was adjusted to 10^4 CFU/mL for bacteria and 10^5 -10^7 for fungi. Invitro antibacterial and antifungal activities of glidobactin PF-1 are shown in Table 3 together with the activities found with glidobactin C.

fungi = assay: In vitro antifungal activity; assay type: cell-based
Method: as §4

## CCCCCCCCC/C=C/C=C/C(=O)N[C@H](C(=O)N[C@H]1C[C@@H](O)CCNC(=O)/C=C\[C@H](C)NC1=O)[C@@H](C)O [Glidobactin C, glidobactin C]
[1]
  MIC: > 100 µg/mL
[2]
  MIC: > 100 µg/mL
[3]
  MIC: > 100 µg/mL
Escherichia coli NIHJ
  MIC: > 100 µg/mL
[4]
  MIC: > 100 µg/mL
[5]
  MIC: > 100 µg/mL
[6]
  MIC: 0.4 µg/mL (≈ 0.729 µM)
Candida albicans A9540
  MIC: 0.2 µg/mL (≈ 0.364 µM)
[7]
  MIC: 0.8 µg/mL (≈ 1.46 µM)
[8]
  MIC: 1.6 µg/mL (≈ 2.92 µM)
[9]
  MIC: > 50 µg/mL
[10]
  MIC: 0.8 µg/mL (≈ 1.46 µM)
[11]
  MIC: 3.1 µg/mL (≈ 5.65 µM)
[12]
  MIC: > 50 µg/mL
Mucor spinosus IFO 5317
  MIC: 0.8 µg/mL (≈ 1.46 µM)
Piricularia oryzae D9
  MIC: 6.3 µg/mL (≈ 11.5 µM)

## CCCCCCC/C=C/C=C/C(=O)N[C@H](C(=O)N[C@H]1C[C@@H](O)CCNC(=O)/C=C/[C@H](C)NC1=O)[C@@H](C)O [Glidobactin A, glidobactin A]
[13]
  cytotoxicity (in words): potent cytotoxicity
  IC50: 0.04 µg/mL (≈ 0.0768 µM)
[14]
  cytotoxicity (in words): potent cytotoxicity
  IC50: 0.008 µg/mL (≈ 0.0154 µM)
[15]
  IC50, DNA synthesis: > 100 µg/mL
  inhibitory effect on DNA synthesis (in words): no significant inhibitory effect
[16]
  IC50, RNA synthesis: > 100 µg/mL
  inhibitory effect on RNA synthesis (in words): no significant inhibitory effect
[17]
  effect on protein synthesis (in words): inhibited protein synthesis
  IC50, Protein synthesis: 0.03 µg/mL (≈ 0.0576 µM)
B16 Melanoma (ip); B16, 0.13 mg/kg/day
  T/C % of MST: 97%
B16 Melanoma (ip); B16, 0.25 mg/kg/day
  T/C % of MST: 100%
B16 Melanoma (ip); B16, 0.5 mg/kg/day
  T/C % of MST: 113%
B16 Melanoma (ip); B16, 1 mg/kg/day
  T/C % of MST: 116%
B16 Melanoma (ip)
  antitumor activity against ip-B16 melanoma (in words): no significant antitumor activity
P388 Leukemia (ip); P388, 0.031 mg/kg/day
  T/C % of MST: 100%
P388 Leukemia (ip); P388, 0.063 mg/kg/day
  T/C % of MST: 110%
P388 Leukemia (ip); P388, 0.13 mg/kg/day
  T/C % of MST: 130%
P388 Leukemia (ip); P388, 0.25 mg/kg/day
  T/C % of MST: 150%
P388 Leukemia (ip); P388, 0.5 mg/kg/day
  T/C % of MST: 155%
P388 Leukemia (ip); P388, 1 mg/kg/day
  T/C % of MST: 190%
P388 Leukemia (ip)
  maximum T/C value: 190%

## CCC=CCC=CCCC=CC=CC(=O)NC(C(=O)NC1CC(O)CCNC(=O)C=CC(C)NC1=O)C(C)O (stereo not shown) [Glidobactin PF-1, glidobactin PF-1]
[1]
  MIC: > 100 µg/mL
[2]
  MIC: > 100 µg/mL
[3]
  MIC: > 100 µg/mL
Escherichia coli NIHJ
  MIC: > 100 µg/mL
[4]
  MIC: > 100 µg/mL
[5]
  MIC: > 100 µg/mL
[6]
  MIC: 12.5 µg/mL (≈ 22.9 µM)
Candida albicans A9540
  MIC: 6.3 µg/mL (≈ 11.6 µM)
[7]
  MIC: 25 µg/mL (≈ 45.9 µM)
[8]
  MIC: 12.5 µg/mL (≈ 22.9 µM)
[9]
  MIC: > 50 µg/mL
[10]
  MIC: 12.5 µg/mL (≈ 22.9 µM)
[11]
  MIC: 12.5 µg/mL (≈ 22.9 µM)
[12]
  MIC: > 50 µg/mL
Mucor spinosus IFO 5317
  MIC: 3.1 µg/mL (≈ 5.69 µM)
Bacteria tested
  inhibition of the bacteria tested (in words): did not inhibit
fungi
  activity against fungi (in words): moderate activity
fungi; relative to glidobactin C
  intrinsic antifungal activity compared with glidobactin C (in words): considerably weaker
[13]
  cytotoxicity (in words): potent cytotoxicity
  IC50: 0.07 µg/mL (≈ 0.129 µM)
[14]
  cytotoxicity (in words): potent cytotoxicity
  IC50: 0.010 µg/mL (≈ 0.0184 µM)
[15]
  IC50, DNA synthesis: > 100 µg/mL
  inhibitory effect on DNA synthesis (in words): no significant inhibitory effect
[16]
  IC50, RNA synthesis: > 100 µg/mL
  inhibitory effect on RNA synthesis (in words): no significant inhibitory effect
[17]
  effect on protein synthesis (in words): inhibited protein synthesis
  IC50, Protein synthesis: 0.07 µg/mL (≈ 0.129 µM)
[17]; relative to glidobactin A
  inhibitory activity on protein synthesis relative to glidobactin A: approximately half
B16 Melanoma (ip); B16, 0.13 mg/kg/day
  T/C % of MST: 103%
B16 Melanoma (ip); B16, 0.25 mg/kg/day
  T/C % of MST: 118%
B16 Melanoma (ip); B16, 0.5 mg/kg/day
  T/C % of MST: 113%
B16 Melanoma (ip); B16, 1 mg/kg/day
  T/C % of MST: 111%
B16 Melanoma (ip)
  antitumor activity against ip-B16 melanoma (in words): no significant antitumor activity
P388 Leukemia (ip); P388, 0.016 mg/kg/day
  T/C % of MST: 118%
P388 Leukemia (ip); P388, 0.031 mg/kg/day
  T/C % of MST: 129%
P388 Leukemia (ip); P388, 0.063 mg/kg/day
  T/C % of MST: 133%
P388 Leukemia (ip); P388, 0.13 mg/kg/day
  T/C % of MST: 160%
P388 Leukemia (ip); P388, 0.25 mg/kg/day
  T/C % of MST: 170%
P388 Leukemia (ip); P388, 0.5 mg/kg/day
  T/C % of MST: 174%
P388 Leukemia (ip); P388, 1 mg/kg/day
  T/C % of MST: 130%
P388 Leukemia (ip)
  maximum T/C value: 174%
P388 Leukemia (ip); in vivo P388, relative to glidobactin A
  potency against P388 relative to glidobactin A: approximately 4 times
Piricularia oryzae D9
  MIC: 12.5 µg/mL (≈ 22.9 µM)
In methanol, ethanol, n-butanol, and dimethyl sulfoxide
  solubility (in words): soluble
In n-hexane and water
  solubility (in words): insoluble

## CO[C@@]12[C@H](COC(N)=O)C3=C(C(=O)C(C)=C(N)C3=O)N1C[C@@H]1N[C@@H]12 [Mitomycin C]
[13]
  IC50: 0.50 µg/mL (≈ 1.5 µM)
[15]
  IC50, DNA synthesis: 1.7 µg/mL (≈ 5.08 µM)
[16]
  IC50, RNA synthesis: > 100 µg/mL
[17]
  IC50, Protein synthesis: > 100 µg/mL
P388 Leukemia (ip); P388, 0.031 mg/kg/day
  T/C % of MST: 115%
P388 Leukemia (ip); P388, 0.063 mg/kg/day
  T/C % of MST: 140%
P388 Leukemia (ip); P388, 0.13 mg/kg/day
  T/C % of MST: 145%
P388 Leukemia (ip); P388, 0.25 mg/kg/day
  T/C % of MST: 170%
P388 Leukemia (ip); P388, 0.5 mg/kg/day
  T/C % of MST: 190%
P388 Leukemia (ip); P388, 1 mg/kg/day
  T/C % of MST: 225%
